In patent publication US9115212B2, “Bifunctional peptide” (REGENTIS INTERNATIONAL, priority 2012, dated 2015):
Where a SMILES comes first, the peptide text is derived from it.

Key:
type I collagen = test: Protein expression of type I collagen in dermal fibroblasts (Western Blot, ImageJ); format: cell-based, human; settings: peptide 100 μg/ml, vs untreated control
Method: (§1) The dermal fibroblasts were isolated from abdomen skin biopsies obtained during surgery operations performed on healthy patients between 35 and 75 years of age.
(§2) After removing the epidermis, the fibroblasts were recovered by enzymatic digestion, then were cultured at 37° C. in DMEM (Dulbecco's Modified Eagle Medium) medium supplemented with 10% fetal calf serum and 1% penicillin/streptomycin.
(§3) The fibroblasts were then treated with the peptide having sequence […] (SEQ. ID NO. 1), or various fragments of this sequence, at a concentration of 100 μg/ml. The various fragments tested are as follows: • peptide 1 (pept 1): peptide having the sequence […] (SEQ. ID NO. 1), • peptide 2 (pept 2): sequence […] (SEQ. ID NO. 1), wherein N-terminal and C-terminal ends correspond to N and OH, respectively • peptide 3 (pept 3): (VGVAPG (SEQ. ID NO: 29))3, wherein N-terminal and C-terminal ends correspond to N and OH, respectively • peptide 4 (pept 4): RVRLIL (SEQ. ID NO. 32, wherein N-terminal and C-terminal ends correspond to N and OH, respectively • peptide 5 (pept 5): N-Gly-Ile-Leu-OH
The protein expression of the type I collagen and the type III collagen has then been shown by Western Blot and quantified by ImageJ. The results are shown respectively in the attached FIGS. 3A and 3B. The control (Ctrl) corresponds to the expression of type I and III collagen at the level of cells not treated with peptides. The experiments were performed in triplicate.

COL1A1 gene = test: Gene expression of COL1A1 in fibroblast cultures (real-time PCR); format: cell-based, human; settings: fibroblasts, 100 μg/ml, 24 h, normalised to GAPDH
Method: (§4) The gene expression of the type I and III collagens in cultures of fibroblasts was also tested in the presence of the different peptides (pept 1 to pept 5) at a concentration of 100 μg/ml.
(§5) After 24 h of treatment with different peptides, the RNAs were extracted from the cultures using a RNeasy® kit (QIAGEN), then re-transcribed into complementary DNAs (cDNAs) using the RT2 First Strand Kit from SABiosciences™.
(§6) Real-time PCR analyses were then performed using the Mx3000p thermocycler from Stratagene in a 96-well plate. Each sample was analyzed in triplicate. The CDNAs serve as matrices in a reaction mixture containing the RT2 SYBR® Green/ROX™ qPCR Master Mix reagents (SABiosciences™) and the sense and antisense primers specific for the gene to be amplified. The reading of the fluorescence was performed at the end of each cycle and analyzed by means of the MxPro software (Stratagene). The relative expression of the COL1A1 and COL3A1 genes of interest coding for type I and type III collagen was obtained by normalizing the amount of products for amplifying the gene being studied by the amount of DNA amplified from a “domestic” gene, in this case the RNA of the gene encoding for the glyceraldehyde-3-phosphate dehydrogenase (GAPDH). As from the number of cycles corresponding to an amplification with a 100% efficiency, the relative quantity of cDNAs studied was calculated using the 2-AACT method (Livak & Schmittgen, 2001).
(§7) The control (Ctrl) corresponds to the expression of the genes coding for both types of collagen when the fibroblasts are not treated.

COL3A1 gene = test: Gene expression of COL3A1 in fibroblast cultures (real-time PCR); format: cell-based, human; settings: fibroblasts, 100 μg/ml, 24 h; for gene expression of type III collagen (COL3A1): normalised to GAPDH
Method: as §4, §5, §6, §7

type III collagen = test: Protein expression of type III collagen in dermal fibroblasts (Western Blot, ImageJ); format: cell-based, human; settings: peptide 100 μg/ml
Method: as §1, §2, §3
The protein expression of the type I collagen and the type III collagen has then been shown by Western Blot and quantified by ImageJ. The results are shown respectively in the attached FIGS. 3A and 3B. […]

[1] = test system: type I and type III collagen; test: Collagen expression depending on the age of the patients; format: cell-based, human; settings: dermal fibroblasts from patients
Method: Dermal fibroblasts from younger or older patients were cultured and the bifunctional peptide according to the invention having the sequence […] (SEQ. ID NO. 1) has been tested as to the protein and gene expression of type I and type III collagen. The results obtained as regards the protein expression of the two types of collagen are visible in FIG. 5.

urokinase [2] = target: T1, urokinase (Homo sapiens, UniProt P00749); test: Urokinase activity on synthetic substrate S2444; format: biochemical
Method: The activity of the urokinase on its synthetic substrate, D-Glu-Gly-Arg+NHPhNO2 L-Pyroglutamyl-glycyl-L-arginine-p-Nitroaniline hydrochloride (2444) has been tested in the presence and absence of the peptide according to the invention at different concentrations.
A kinetics of hydrolysis of the substrate S2444 […] by the urokinase (9.25*10^−6 mM) was carried out in the presence of the bifunctional peptide having the sequence […] (SEQ. ID NO. 1) and concentrated at 10^−3, 10^−4 and 10^−5 M for 1 hour. The control corresponds to the kinetics in the absence of peptide. The enzyme activity was evaluated by measuring the absorbance (DO) at 405 nm every 5 minutes for a period of 35 min.
FIG. 6B is a graphical representation of the dose/effect relationship between the activity of the urokinase and the concentration of the bifunctional peptide used at time 15 min. The dotted line in the figure permits to determine the IC50, i.e. the peptide concentration required to reduce the activity of the urokinase by 50%.

MMP-1 [3] = target: T2, MMP-1 (Homo sapiens, UniProt P03956); test: MMP-1 activity on natural substrate, collagen fibers of human dermis (cuts of skin, immunostaining); settings: APMA-activated MMP-1, peptide 100 μg/ml, 3 h
T2 sequence (P03956 100-469): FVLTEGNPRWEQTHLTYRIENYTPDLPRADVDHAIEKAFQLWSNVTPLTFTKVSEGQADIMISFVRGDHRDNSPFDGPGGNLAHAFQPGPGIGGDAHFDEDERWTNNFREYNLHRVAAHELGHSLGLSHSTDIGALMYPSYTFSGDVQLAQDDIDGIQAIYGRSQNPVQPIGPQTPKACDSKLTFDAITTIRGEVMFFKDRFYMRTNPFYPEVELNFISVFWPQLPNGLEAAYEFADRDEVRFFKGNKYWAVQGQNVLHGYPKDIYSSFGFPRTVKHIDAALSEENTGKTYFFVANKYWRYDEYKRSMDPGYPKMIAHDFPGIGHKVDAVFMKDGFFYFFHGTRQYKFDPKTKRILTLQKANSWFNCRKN
Method: The effects of the peptide according to the invention were also tested on the activity of the MMP-1 in the presence of its natural substrate, i.e. the collagen fibers of human dermis.
To this end, the MMP-1 has previously been activated by APMA (4-aminophenylmercuric acetate) at 20 mM for 1 h30 at 37° C. The so activated MMP-1 was then deposited on cuts of skin having a thickness of 5μ in the presence or absence of the peptide according to the invention (100 μg/ml). After 3 h, the cuts of skin were immunostained, in order to reveal the presence of type I and III collagen, then observed by confocal microscopy. […] On the other hand, in the presence of the bifunctional peptide, the action of said MMP-1 was inhibited; indeed, the collagens I and III were detected.

urokinase [4] = target: T1, urokinase; test: Cleavage of the bifunctional peptide by the urokinase (HPLC); settings: excess of urokinase, peptide 0.45 mM
Method: At the pericellular level, an excess of urokinase was observed, of about 10^−4 M. The peptide could thus be cleaved by the urokinase, the latter acting in particular at the level of the arginine residues (Arg) of the portion B of the peptide according to the invention.
Studies were conducted by HPLC on a Chromolith Jupiter C18 column (50×4.6 mm), and applying a linear gradient of 0.1% TFA of acetonitrile in 0.1% TFA of water, 0 to 100% for 100 min. […] However, after the action of an excess of urokinase on the bifunctional peptide (0.45 mM), the spectral peak was different; indeed, the new peak was eluted at 20 min, thus characterizing a cleavage of the bifunctional peptide by the urokinase (FIG. 8B).

dermal fibroblasts = test: Toxicity on dermal fibroblasts; format: cell-based; settings: peptide concentrations up to 1 mg/ml
Method: (§8) According to an embodiment, the bifunctional peptide is used preferably at a concentration substantially between 10 μg/ml and 1 mg/ml. Indeed, no toxicity of the peptide according to the invention has been observed on dermal fibroblasts treated with peptide concentrations up to 1 mg/ml. In addition, studies conducted in order to find the toxicity genes through the SAM (Significance Analysis of Microarrays) statistical approach have shown that the cell death, the disruption of the conjunctive tissue and the tumor invasion are induced only from a high concentration of bifunctional peptide, higher than 1 mg/ml.

toxicity genes = test: Toxicity genes through the SAM (Significance Analysis of Microarrays) statistical approach; format: cell-based
Method: as §8

MMP-1 [5] = target: T2, MMP-1; test: MMP-1 activity on synthetic substrate DNP-Pro-Cha-Gly-Cys (Me)-His-Ala-Lys (N-Me-Abz)-NH2; format: biochemical
Method: The substrate of the MMP-1 that was used to test its activity in the presence of the peptide is a synthetic substrate, DNP-Pro-Cha-Gly-Cys (Me)-His-Ala-Lys (N-Me-Abz)-NH2.
A concentration of 80 ng/μl of MMP-1 was brought in the presence of 0.4 ng/μl of synthetic substrate, in the presence or not of bifunctional peptide concentrated at 10^−3, 10^−4 and 10^−5 M for 1 h.
More particularly, FIG. 7A represents a kinetics of hydrolysis of the synthetic substrate of the MMP-1 in the presence or absence (control) of the peptide at different concentrations. The enzymatic activity of the MMP-1 was evaluated by measuring the absorbance (DO) at 465 nm every 5 minutes for a period of 35 min.
FIG. 7B is a graphical representation of the dose-effect relationship between the activity of the MMP-1 and the concentration of bifunctional peptide used at time 15 min.
The Gly-Ile-Leu (GIL) sequence was selected by the inventors for its capability of occupying the P′1, P′2 and P′3 pockets of type I collagenase, the MMP-1. The activity of the latter has been tested on the synthetic substrate, the DNP-Pro-Cha-Gly-Cys (Me)-His-Ala-Lys(N-Me-Abz)-NH2, in the presence or absence of the peptide 5 having the Gly-Ile-Leu (GIL) sequence at concentrations of 10^−5, 10^−4 and 10^−3 M.

Compound: VGVAPGVAVAPGVAVAPGRVRLGIL [pept 2]
- stimulation of the protein expression of the type I collagen (type I collagen): 30%
- gene expression of type I collagen (COL1A1) (COL1A1 gene): stimulate
- gene expression of type III collagen (COL3A1) (COL3A1 gene): stimulate

Compound: CC[C@H](C)[C@H](NC(=O)CNC(=O)[C@H](CC(C)C)NC(=O)[C@H](CCCNC(=N)N)NC(=O)[C@@H](NC(=O)[C@H](CCCNC(=N)N)NC(=O)CNC(=O)[C@@H]1CCCN1C(=O)[C@H](C)NC(=O)[C@@H](NC(=O)[C@H](C)NC(=O)[C@@H](NC(=O)CNC(=O)[C@@H]1CCCN1C(=O)[C@H](C)NC(=O)[C@@H](NC(=O)[C@H](C)NC(=O)[C@@H](NC(=O)CNC(=O)[C@@H]1CCCN1C(=O)[C@H](C)NC(=O)[C@@H](NC(=O)CNC(=O)[C@@H](N)C(C)C)C(C)C)C(C)C)C(C)C)C(C)C)C(C)C)C(C)C)C(=O)N[C@@H](CC(C)C)C(=O)O [pept 1] (H-VGVAPGVAVAPGVAVAPGRVRLGIL-OH)
- stimulation of the protein expression of the type I collagen (type I collagen): 30%
- increase in the synthesis of type III collagen compared to fibroblasts treated with pept 3 (type III collagen; relative to pept 3): 36%
- production of type III collagen (type III collagen; vs untreated control): more than doubled
- gene expression of type I collagen (COL1A1) (COL1A1 gene): stimulate
- gene expression of type III collagen (COL3A1) (COL3A1 gene): stimulate
- synthesis of type III collagen (gene expression) with respect to cells treated with peptide 3 (COL3A1 gene; relative to peptide 3): increase
- action on the synthesis of collagen depending on the age of the patients [1]: greater when the fibroblasts proceed from older patients
- mode of urokinase inhibition (urokinase [2]): competitive inhibitor
- action of MMP-1 on collagens I and III of cuts of skin (MMP-1 [3]): inhibited
- cleavage by urokinase (urokinase [4]): cleavage
- toxicity on dermal fibroblasts (dermal fibroblasts): no toxicity
- concentration from which cell death, disruption of the conjunctive tissue and tumor invasion are induced (toxicity genes): higher than 1 mg/ml

Compound: RVRLIL [pept 4, ID NO; 32]
- stimulation of the protein expression of the type I collagen (type I collagen): do not permit the stimulation
- gene expression of type I collagen (COL1A1) (COL1A1 gene): no effect
- gene expression of type III collagen (COL3A1) (COL3A1 gene): no effect

Compound: CC[C@H](C)[C@H](NC(=O)CN)C(=O)N[C@@H](CC(C)C)C(=O)O [pept 5, N-Gly-Ile-Leu-OH] (H-Gly-Ile-Leu-OH)
- stimulation of the protein expression of the type I collagen (type I collagen): do not permit the stimulation
- gene expression of type I collagen (COL1A1) (COL1A1 gene): no effect
- gene expression of type III collagen (COL3A1) (COL3A1 gene): no effect
- effect on the activity of the MMP-1 on its synthetic substrate (MMP-1 [5]; 10^−5, 10^−4 and 10^−3 M): decreases in a dose-dependent way
- IC50 (MMP-1 [5]; synthetic substrate, time 15 min, read-out: IC50 MMP-1 activity, peptide concentration (converted)): 70.7 µM

Compound: (VGVAPG (SEQ. ID NO: 29))3 [pept 3]
- stimulation of the protein expression of the type I collagen (type I collagen): 30%
- gene expression of type I collagen (COL1A1) (COL1A1 gene): stimulate
- gene expression of type III collagen (COL3A1) (COL3A1 gene): stimulate
